Data on one molecule can be found in PMC5325331, “A steroid like phytochemical Antcin M is an anti-aging reagent that eliminates hyperglycemia-accelerated premature senescence in dermal fibroblasts by direct activation of Nrf2 and SIRT-1” (Oncotarget, 2016).

The test system of one assay is HNDFs. As to the kind of experiment: Cell proliferation, trypan blue exclusion assay in HG-induced HNDFs. Type of assay: cell-based, human. The following applies: with HG (30 mM) for 72 h (Figure 2D). Here is the method: Cell proliferation was evaluated using trypan blue exclusion assay as described previously with minor modification. Cells were plated into 6-well plates at a density of 5 × 10^4 cells/well. After incubation overnight, cells were treated with test samples in the presence or absence of HG for 24-72 h. Cells exposed to 0.2% Trypan blue were then counted in a hemocytometer, and cells stained with Trypan blue were excluded. Percentage of viable cells was calculated based on the ratio of viable cells to total cell population in each well. The proliferation rate was calculated based on the number of viable cells in HG or sample-treated groups versus the NG-treated group.

The test system of assay [1] is p16INK4A, p21CIP1 and SMP30. As to the kind of experiment: Western blot of senescence-associated marker proteins in HG-induced HNDFs. Type of assay: cell-based, human. The following applies: 10 μM with HG (30 mM) for 72 h, immunoblotting. Here is the method: Cells were lysed by either RIPA lysis buffer or nuclear and cytoplasmic extraction reagents (Thermo Fisher Scientific). Protein concentrations were determined by Bio-Rad protein assay reagent (Bio-Rad Laboratories, Hercules, CA). Equal amounts of protein samples (60 μg) were separated by 7-12% SDS-PAGE and the separated proteins were transferred onto polyvinylidene […] (PVDC) membrane overnight. The transferred protein membranes were blocked with 5% non-fat dried milk for 30 min, followed by incubation with specific primary antibodies overnight, and either horseradish peroxidase-conjugated goat anti-rabbit or anti-mouse antibodies for 2 h. The blots were detected using VL Chemi-Smart 3000 (Viogene Biotek, Sunnyvale, CA) with the enhanced chemiluminescence (ECL) western blotting reagent (Millipore, Billerica, MA).
For orientation: In western blotting, separated proteins are transferred to a membrane and probed.

In the case of `C=C(CCC(C)C1CCC2C3=C(C(=O)C(O)C21C)C1(C)CCC(O)C(C)C1CC3)C(C)C(=O)O` (stereo not drawn) [ANM, antcin M], the “cell proliferation compared to the HG treatment group” value in the assay on HNDFs is reported as “two-fold increase”. Moreover, in assay [1], the “HG-induced upregulation of p16INK4A and p21CIP1 proteins” value is listed as “significantly downregulated”; the SMP30 protein expression entry is “rescued HG-induced SMP30 depletion”.
